Data: PMC10611581, “Directed evolution unlocks oxygen reactivity for a nicotine-degrading flavoenzyme” (Nature Chemical Biology, 2023)

Experiments:
[1] = target: T1, NicA2 (nicotine oxidoreductase) (Pseudomonas putida, UniProt F8G0P2); assay: bound flavin absorbance at […] nm; ThermoFAD; format: binding; details: co-purified bound cofactor
T1 construct: expressed in E. coli BL21 (DE3) from pET28a-His-SUMO-nicA2, His-SUMO tag cleaved by ULP-1
T1 sequence (F8G0P2 39-482 limits assumed): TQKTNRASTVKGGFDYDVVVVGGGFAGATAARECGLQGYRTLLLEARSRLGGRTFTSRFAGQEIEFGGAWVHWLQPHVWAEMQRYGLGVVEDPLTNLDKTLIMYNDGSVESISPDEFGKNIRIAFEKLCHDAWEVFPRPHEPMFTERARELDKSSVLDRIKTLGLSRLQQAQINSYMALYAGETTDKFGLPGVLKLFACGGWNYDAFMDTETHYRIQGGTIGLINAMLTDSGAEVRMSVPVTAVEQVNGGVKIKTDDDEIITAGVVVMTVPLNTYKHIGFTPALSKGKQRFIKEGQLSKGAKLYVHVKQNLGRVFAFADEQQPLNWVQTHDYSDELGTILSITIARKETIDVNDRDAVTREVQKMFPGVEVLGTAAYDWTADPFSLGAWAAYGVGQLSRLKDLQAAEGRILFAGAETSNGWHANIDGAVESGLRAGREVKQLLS

[2] = target: the molecule itself; assay: crystal structure; hanging-drop vapor diffusion at 4 °C; NicA2 v321 ligand-free and with 20 mM NMM (sodium citrate pH 5.0, 18% PEG 6000), wild type with 2.3 mM NMM (0.2 M ammonium citrate pH 7.0, 20% PEG 3350); two molecules in the asymmetric unit

**Q.** Cc1cc2nc3c(=O)[nH]c(=O)nc-3n(C[C@H](O)[C@H](O)[C@H](O)COP(=O)(O)OP(=O)(O)OC[C@H]3O[C@@H](n4cnc5c(N)ncnc54)[C@H](O)[C@@H]3O)c2cc1C [flavin adenine dinucleotide] was tested. Which “bound flavin absorbance at 450 nm; ThermoFAD” value [1] did it give?
**A.** Its value is “determined using the absorbance of bound FAD cofactor”.

B1: nicotine oxidoreductase (NicA2), wild type (enzyme, Pseudomonas putida S16, UniProt F8G0P2 39-482, looked up)
chain: T1 sequence (F8G0P2 39-482 limits assumed)
notes: nicotine oxidoreductase NicA2 of Pseudomonas putida S16; crystallised with N-methylmyosmine (NMM); also called wild-type NicA2; WT; source: E. coli BL21 (DE3), purified (HisTrap, ULP-1 cleavage, HiTrap Q, Superdex 200)
**Q.** B1 was tested. Which “stoichiometry N” value [2] did it give?
**A.** The value was 2.
